Reference: PubChem BioAssay AID2060905 (Molecular Pharmacology Branch, DTP, NCI, 2025)

Test system: 282377-053-R-J1-PDC complex spheroid viability
Assay: Anticancer human tumor 282377-053-R-J1-PDC patient-derived colon adenocarcinoma cell line growth inhibition [RAS]
Conditions: for IC50: curve of first compound; for viability, T/C: stronger effect = lower value
Summary of the method: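 Multi-cell-type spheroids: tumor cells plus HUVEC endothelial cells and mesenchymal stem cells. RAS-pathway inhibitors were combined with targeted agents, each dosed in half-log steps down from clinical Cmax, or from 10 microM when Cmax was unknown.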

[1] = second compound 0.000949 µM, first compound 0.0316 µM
[2] = second compound 0.000949 µM, first compound 0.1 µM
[3] = second compound 0.000949 µM, first compound 0.316 µM
[4] = second compound 0.000949 µM, first compound 1 µM
[5] = second compound 0.000949 µM, first compound 3.16 µM
[6] = second compound 0.000949 µM, first compound 10 µM
[7] = second compound 0.003 µM, first compound 0.0316 µM
[8] = second compound 0.003 µM, first compound 0.1 µM
[9] = second compound 0.003 µM, first compound 0.316 µM
[10] = second compound 0.003 µM, first compound 1 µM
[11] = second compound 0.003 µM, first compound 3.16 µM
[12] = second compound 0.003 µM, first compound 10 µM
[13] = second compound 0.00949 µM, first compound 0.0316 µM
[14] = second compound 0.00949 µM, first compound 0.1 µM
[15] = second compound 0.00949 µM, first compound 0.316 µM
[16] = second compound 0.00949 µM, first compound 1 µM
[17] = second compound 0.00949 µM, first compound 3.16 µM
[18] = second compound 0.00949 µM, first compound 10 µM
[19] = second compound 0.03 µM, first compound 0.0316 µM
[20] = second compound 0.03 µM, first compound 0.1 µM
[21] = second compound 0.03 µM, first compound 0.316 µM
[22] = second compound 0.03 µM, first compound 1 µM
[23] = second compound 0.03 µM, first compound 3.16 µM
[24] = second compound 0.03 µM, first compound 10 µM
[25] = second compound 0.0949 µM, first compound 0.0316 µM
[26] = second compound 0.0949 µM, first compound 0.1 µM
[27] = second compound 0.0949 µM, first compound 0.316 µM
[28] = second compound 0.0949 µM, first compound 1 µM
[29] = second compound 0.0949 µM, first compound 3.16 µM
[30] = second compound 0.0949 µM, first compound 10 µM
[31] = second compound 0.3 µM, first compound 0.0316 µM
[32] = second compound 0.3 µM, first compound 0.1 µM
[33] = second compound 0.3 µM, first compound 0.316 µM
[34] = second compound 0.3 µM, first compound 1 µM
[35] = second compound 0.3 µM, first compound 3.16 µM
[36] = second compound 0.3 µM, first compound 10 µM
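Also: spheroids exposed to agents for seven days before readout.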
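For viability, T/C in this document: luminescence viability as percent of DMSO vehicle control wells.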

Compound: CC1(O)CCCC1n1c(=O)c(C(F)F)cc2cnc(NC3CCN(S(C)(=O)=O)CC3)nc21 (centres undefined) + CCn1c(-c2cccnc2C(C)OC)c2c3cc(ccc31)N1CCOC(CC(NC(=O)C(C(C)C)N(C)C(=O)C3(F)CCN(C(=O)C#CC(C)(C)N(C)C)CC3)C(=O)N3CCCC(N3)C(=O)OCC(C)(C)C2)C1
- IC50 (second compound 0.000949 µM): 6.89 µM
- IC50 (second compound 0.003 µM): 7.15 µM
- IC50 (second compound 0.00949 µM): 7.05 µM
- IC50 (second compound 0.03 µM): 6.9 µM
- IC50 (second compound 0.0949 µM): 7.3 µM
- IC50 (second compound 0.3 µM): 6.87 µM
- viability, T/C [1]: 118%
- viability, T/C [2]: 112%
- viability, T/C [3]: 171%
- viability, T/C [4]: 144%
- viability, T/C [5]: 159%
- viability, T/C [6]: 6.67%
- viability, T/C [7]: 129%
- viability, T/C [8]: 128%
- viability, T/C [9]: 140%
- viability, T/C [10]: 131%
- viability, T/C [11]: 218%
- viability, T/C [12]: 8.84%
- viability, T/C [13]: 122%
- viability, T/C [14]: 97%
- viability, T/C [15]: 153%
- viability, T/C [16]: 156%
- viability, T/C [17]: 199%
- viability, T/C [18]: 8.76%
- viability, T/C [19]: 105%
- viability, T/C [20]: 111%
- viability, T/C [21]: 153%
- viability, T/C [22]: 159%
- viability, T/C [23]: 165%
- viability, T/C [24]: 7.79%
- viability, T/C [25]: 121%
- viability, T/C [26]: 120%
- viability, T/C [27]: 201%
- viability, T/C [28]: 181%
- viability, T/C [29]: 214%
- viability, T/C [30]: 5.91%
- viability, T/C [31]: 111%
- viability, T/C [32]: 129%
- viability, T/C [33]: 146%
- viability, T/C [34]: 155%
- viability, T/C [35]: 158%
- viability, T/C [36]: 6.46%

Compound: CCC(CC)c1cc(NC2CCC(N)C2)n2nccc2n1 (centres undefined) + CCn1c(-c2cccnc2C(C)OC)c2c3cc(ccc31)N1CCOC(CC(NC(=O)C(C(C)C)N(C)C(=O)C3(F)CCN(C(=O)C#CC(C)(C)N(C)C)CC3)C(=O)N3CCCC(N3)C(=O)OCC(C)(C)C2)C1
- IC50 (second compound 0.000949 µM): 1.72 µM
- IC50 (second compound 0.003 µM): 1.67 µM
- IC50 (second compound 0.00949 µM): 1.76 µM
- IC50 (second compound 0.03 µM): 1.85 µM
- IC50 (second compound 0.0949 µM): 1.61 µM
- IC50 (second compound 0.3 µM): 1.78 µM
- viability, T/C [1]: 98.1%
- viability, T/C [2]: 105%
- viability, T/C [3]: 81.3%
- viability, T/C [4]: 87%
- viability, T/C [5]: 8.86%
- viability, T/C [6]: 3.59%
- viability, T/C [7]: 86.3%
- viability, T/C [8]: 105%
- viability, T/C [9]: 79.4%
- viability, T/C [10]: 81.4%
- viability, T/C [11]: 10.8%
- viability, T/C [12]: 3.49%
- viability, T/C [13]: 114%
- viability, T/C [14]: 93.9%
- viability, T/C [15]: 99%
- viability, T/C [16]: 89%
- viability, T/C [17]: 9.93%
- viability, T/C [18]: 2.98%
- viability, T/C [19]: 81.2%
- viability, T/C [20]: 111%
- viability, T/C [21]: 102%
- viability, T/C [22]: 95.3%
- viability, T/C [23]: 10.7%
- viability, T/C [24]: 4.2%
- viability, T/C [25]: 96.8%
- viability, T/C [26]: 110%
- viability, T/C [27]: 89.8%
- viability, T/C [28]: 77.4%
- viability, T/C [29]: 11.2%
- viability, T/C [30]: 4.78%
- viability, T/C [31]: 112%
- viability, T/C [32]: 90.2%
- viability, T/C [33]: 95%
- viability, T/C [34]: 87.6%
- viability, T/C [35]: 12.6%
- viability, T/C [36]: 4.08%
